Results reported in patent US7390874B2 (Kuboyama Bio Ken, Inc., priority 2003, dated 2008).
Read-outs that look alike come from different tables or passages of the source. Ends that are not written are not given here.

What was measured:
[1] = tested on: Adjuvant Induced Arthritis in Rats; assay: Adjuvant-induced arthritis model in rats (paw weight, inhibition of inflammation); type: in vivo, male Sprague-Dawley rats
Description: Adjuvant-induced arthritis responds to both steroids and non-steroids. The degree of inflammation will be assessed by measuring differences in foot weight and/or the foot volume.
(§1) Rats weighting between 150-200 g were purchased from Animal Technologies Ltd., Kent, Wash. They were male Sprague-Dawley rats. The animals were kept individually in stainless steel cages with free access to water and feed (Harlan Teklan Rodent Diet). The light cycle was maintained at 12 hours light and 12 hours dark. The temperature was maintained at 22° C.±3° C. with a relative humidity of 40 to 70%.
[…] The test compound and hydrocortisone were given by gavage.
Male Sprague-Dawley rats (150-200 g) were sensitized by injecting Fruend's complete adjuvant (0.5% suspension of killed mycobacterium tuberculosis (H37RA, Difco, in mineral oil)). A 0.1 ml aliquot was administered intradermally at a plantar site on the right hind leg of each rat.
The test materials were given orally (by gavage) to each of 5 rats per treatment group once per day for 10 days. […]
(§2) The left hind paw was measured just before sensitization and again on Day 10. The plantar edema inhibitory rate and the body weight gain rate was determined by comparison with the non-sensitized rat groups.
The paw weights for each group were averaged. Anti-inflammatory activity was determined by comparing paw weights calculated as follows: […]

[2] = Body weight gains of rats in the adjuvant-induced arthritis study; type: in vivo, male Sprague-Dawley rats
Description: as §1
The test materials were given orally (by gavage) to each of 5 rats per treatment group once per day for 10 days. Administration of the test materials was initiated on the day of sensitization.
as §2

[3] = mice
Description: One tenth (0.1 ml) of the above suspension is inoculated into the left hind leg muscle (hamstring muscle mass) of each mouse. The inoculated mice are placed into one large cage and then randomly segregated into groups of five mice. The mice are housed in shoe box cages on wood shavings with free access to water and laboratory chow. The mice are weighed on the day of inoculation, on day 7, day 12, at time of sacrifice.

Compound | % Inhibition ([1]; 10 mg/kg by gavage once per day for 10 days, adjuvant-induced inflammation, rats) [%] | Raw Paw Weight ([1]; rats sensitized with Freund's complete adjuvant, oral gavage once per day for 10 days, Day 10, dose for this column not stated) [g] | Body Weight Gains of Rats ([2]; 10 mg/kg by gavage once per day for 10 days) | Body Weight Gains of Rats ([2]; 1 mcg/kg by gavage once per day for 10 days) | Body Weight Gains of Rats ([2]; 10 mcg/kg by gavage once per day for 10 days) | weight loss (in words) ([2]; rats, 10 mcg/kg and 1 mcg/kg by gavage for 10 days) | Average Weight Gain ([3]; 1 mcg/kg dose by gavage for 11 days) [g] | Average Weight Gain ([3]; 10 mcg/kg dose by gavage for 11 days) [g] | weight gain associated with administration versus control (in words) ([3]; gavage for 11 days)
C[C@]12CCC(=O)C=C1CC[C@@H]1[C@@H]2[C@@H](O)C[C@@]2(C)[C@H]1CC[C@]2(O)C(=O)CO [Hydrocortisone] | 95.6 | 0.69 | 22.2 |  |  |  |  |  | 
YGSRS [Peptide, tyrosine-glycine-serine-arginine-serine] |  |  |  | 40.1 | 39.4 | without inducing weight loss | 1.85 | 1.87 | comparable to the control
